In paper PMC4728423, “Natural and synthetic flavonoid modulation of TRPC5 channels” (British Journal of Pharmacology, 2016):
pIC50: −log10 of the molar value. Where two headings read alike, the source gives them in different places.

Key:
[1] = molecular target: T1, human TRPC5 (Homo sapiens, UniProt Q9UL62); assay: Whole-cell patch clamp of TRPC5-expressing (Tet+) HEK 293 cells; format: cell-based
T1 construct: expressed in transfected cells
T1 sequence (Q9UL62 1-973): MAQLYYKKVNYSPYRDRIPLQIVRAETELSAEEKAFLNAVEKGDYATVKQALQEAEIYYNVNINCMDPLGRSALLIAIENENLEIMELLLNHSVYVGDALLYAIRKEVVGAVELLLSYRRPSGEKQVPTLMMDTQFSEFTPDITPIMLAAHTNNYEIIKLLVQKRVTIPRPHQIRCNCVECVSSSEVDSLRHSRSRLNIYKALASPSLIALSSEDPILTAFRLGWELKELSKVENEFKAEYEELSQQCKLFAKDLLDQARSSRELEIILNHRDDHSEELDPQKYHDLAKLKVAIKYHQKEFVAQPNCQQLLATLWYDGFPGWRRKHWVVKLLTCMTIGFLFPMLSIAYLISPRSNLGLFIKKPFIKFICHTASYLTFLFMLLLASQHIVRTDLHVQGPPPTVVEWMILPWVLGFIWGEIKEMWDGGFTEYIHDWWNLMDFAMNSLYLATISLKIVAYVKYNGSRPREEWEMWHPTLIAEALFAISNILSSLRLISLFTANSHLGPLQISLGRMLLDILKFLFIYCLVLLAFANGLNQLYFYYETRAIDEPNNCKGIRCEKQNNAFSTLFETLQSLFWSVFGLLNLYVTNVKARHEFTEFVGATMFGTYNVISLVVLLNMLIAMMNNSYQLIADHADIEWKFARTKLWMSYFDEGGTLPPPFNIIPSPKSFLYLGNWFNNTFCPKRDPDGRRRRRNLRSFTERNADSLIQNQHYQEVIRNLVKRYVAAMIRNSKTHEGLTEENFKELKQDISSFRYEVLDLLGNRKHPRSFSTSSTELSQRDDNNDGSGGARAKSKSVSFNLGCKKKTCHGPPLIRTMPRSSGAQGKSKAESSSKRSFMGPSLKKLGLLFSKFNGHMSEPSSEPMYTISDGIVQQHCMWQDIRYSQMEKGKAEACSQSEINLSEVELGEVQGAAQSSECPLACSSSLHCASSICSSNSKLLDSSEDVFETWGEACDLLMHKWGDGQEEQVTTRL

[2] = molecular target: T1, human TRPC5; assay: Gd3+-evoked Ca2+ entry in TRPC5-expressing (Tet+) HEK 293 cells; format: cell-based; conditions: for pIC50: TRPC5 (Tet+) HEK 293, 50 μM Gd3+, fluo-4, 30 min pretreatment, read-out: IC50, inhibition of Gd3+-evoked Ca2+ entry; for effect on Gd3+-evoked Ca2+ entry (natural flavonoid screen): XRhod-1
[3] = molecular target: T1, human TRPC5; assay: Outside-out patch recordings from TRPC5 Tet+ cells; format: cell-based; conditions: 10 μM compound, 100 μM Gd3+
[4] = molecular target: endogenous TRPC5-containing channels (Mus musculus, UniProt Q9QX29); assay: Ca2+ entry through endogenous channels in differentiated 3T3-L1 cells; format: cell-based; conditions: estimated
endogenous TRPC5-containing channels, sequence (Q9QX29 whole entry): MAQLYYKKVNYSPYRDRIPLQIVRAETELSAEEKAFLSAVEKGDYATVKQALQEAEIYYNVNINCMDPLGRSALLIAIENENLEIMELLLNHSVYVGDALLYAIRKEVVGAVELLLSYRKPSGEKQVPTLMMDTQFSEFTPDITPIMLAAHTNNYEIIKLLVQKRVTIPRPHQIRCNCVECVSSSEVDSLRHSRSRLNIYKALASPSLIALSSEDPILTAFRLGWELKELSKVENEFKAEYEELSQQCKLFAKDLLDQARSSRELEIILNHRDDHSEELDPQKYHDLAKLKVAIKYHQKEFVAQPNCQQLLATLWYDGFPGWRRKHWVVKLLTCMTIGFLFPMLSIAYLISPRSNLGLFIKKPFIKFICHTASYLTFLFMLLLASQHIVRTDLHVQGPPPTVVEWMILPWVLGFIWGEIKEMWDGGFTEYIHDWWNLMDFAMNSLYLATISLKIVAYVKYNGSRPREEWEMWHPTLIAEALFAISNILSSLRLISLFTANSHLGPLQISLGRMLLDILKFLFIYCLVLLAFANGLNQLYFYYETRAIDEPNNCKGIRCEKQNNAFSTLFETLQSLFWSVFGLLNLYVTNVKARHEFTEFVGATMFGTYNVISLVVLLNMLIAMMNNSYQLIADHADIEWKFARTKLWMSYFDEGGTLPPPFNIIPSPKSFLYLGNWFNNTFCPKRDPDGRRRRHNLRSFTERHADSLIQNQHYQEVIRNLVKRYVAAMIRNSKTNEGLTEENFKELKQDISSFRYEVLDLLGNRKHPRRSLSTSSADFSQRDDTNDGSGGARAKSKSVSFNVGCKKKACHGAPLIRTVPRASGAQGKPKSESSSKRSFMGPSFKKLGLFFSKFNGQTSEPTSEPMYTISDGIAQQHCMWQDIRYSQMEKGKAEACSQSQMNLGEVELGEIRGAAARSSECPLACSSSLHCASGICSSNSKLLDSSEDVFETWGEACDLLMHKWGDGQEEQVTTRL
endogenous TRPC5-containing channels, sequence (Q61056 whole entry partner): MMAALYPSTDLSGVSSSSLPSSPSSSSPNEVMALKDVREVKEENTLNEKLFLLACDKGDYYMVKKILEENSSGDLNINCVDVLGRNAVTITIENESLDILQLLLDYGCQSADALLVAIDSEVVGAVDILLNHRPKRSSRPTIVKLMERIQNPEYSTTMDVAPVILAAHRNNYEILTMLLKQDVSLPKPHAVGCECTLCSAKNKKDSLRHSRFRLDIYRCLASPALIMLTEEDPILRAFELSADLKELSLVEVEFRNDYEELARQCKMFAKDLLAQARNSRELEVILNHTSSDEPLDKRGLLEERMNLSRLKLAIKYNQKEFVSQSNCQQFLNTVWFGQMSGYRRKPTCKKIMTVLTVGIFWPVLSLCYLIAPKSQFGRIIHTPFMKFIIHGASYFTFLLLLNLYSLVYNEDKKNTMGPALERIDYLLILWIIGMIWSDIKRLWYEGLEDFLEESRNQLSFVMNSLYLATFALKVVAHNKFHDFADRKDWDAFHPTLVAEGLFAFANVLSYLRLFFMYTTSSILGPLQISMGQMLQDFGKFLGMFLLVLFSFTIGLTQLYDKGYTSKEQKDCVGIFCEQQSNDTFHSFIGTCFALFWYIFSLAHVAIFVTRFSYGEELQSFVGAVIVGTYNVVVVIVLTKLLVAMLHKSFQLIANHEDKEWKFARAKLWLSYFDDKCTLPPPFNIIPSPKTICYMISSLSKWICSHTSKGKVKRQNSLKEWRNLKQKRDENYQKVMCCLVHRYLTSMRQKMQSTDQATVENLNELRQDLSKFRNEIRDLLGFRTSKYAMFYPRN
Method: The 3T3‐L1 cell line was obtained from the American Type Culture Collection and cultured in DMEM‐F12 containing 10% fetal calf serum (FCS), 100 U·mL^−1 penicillin and 100 μg·mL^−1 streptomycin. To induce differentiation, cells were grown to confluence, and 2 days post‐confluence, the medium was changed to a medium containing 5 μg·mL^−1 insulin, 0.25 μM dexamethasone and 0.5 mM IBMX with 10% FCS and antibiotics. After 48 h, medium was changed to a maintenance medium containing 5 μg·mL^−1 insulin, 10% FCS and antibiotics. Cells were fed with fresh maintenance medium every 2 days until the day of experiments. For all experiments, cells were differentiated for 12–16 days.
Induced (Tet+) and non‐induced (Tet−) cells were plated in poly‐d‐lysine‐coated black 96‐well plates (Corning, Corning, NY, USA) at a confluence of 90% 24 h before experimentation. […] Cells were washed three times with SBS before measurements were made at room temperature (21 ± 2 °C) on a 96‐well fluorescence plate reader (FlexStation II^384, Molecular Devices, Sunnyvale, CA, USA). […] Readings were made every 10 s. Fura‐2 measurements are shown as the fluorescence (F) ratio or change (Δ) in this ratio. Fluo‐4 and XRhod‐1 measurements are shown as absolute fluorescence in arbitrary units or changes in this fluorescence (ΔF). […]

[5] = tested on: Cav1.2 channels; design: method as in Saponara et al., 2011; conditions: smooth muscle; ref Saponara et al., 2011; cited from earlier work
[6] = tested on: 3T3-L1 cells; conditions: cited from earlier work
[7] = tested on: BKCa channels; design: method as in Cogolludo et al., 2007; Xu et al., 2008b; conditions: ref Cogolludo et al., 2007; Xu et al., 2008b; cited from earlier work
[8] = tested on: GABA-evoked ionic currents; design: method as in Goutman et al., 2003; conditions: ref Goutman et al., 2003; cited from earlier work

SMILES	pIC50 [2]	effect on Cav1.2 channels [5]	effect on Gd3+-evoked Ca2+ entry (natural flavonoid screen) ([2]; 10 μM, 50 μM Gd3+)	effect on BKCa channels [7]	other results
NCCOB(c1ccccc1)c1ccccc1 [2‐aminoethoxydiphenylborate]	–	–	–	–	effect on TRPC5 whole-cell current after galangin ([1]; 75 μM, applied after Gd3+ and galangin): further inhibited the current
O=c1cc(-c2ccc(O)c(O)c2)oc2cc(O)cc(O)c12 [Luteolin]	< 5.00	–	–	–	–
O=c1c(O)c(-c2cc(O)c(O)c(O)c2)oc2cc(O)cc(O)c12 [Myricetin]	< 5.00	stimulators	–	–	–
O=c1c(O)c(-c2ccc(O)c(O)c2)oc2cc(O)cc(O)c12 [Quercetin]	5.19	stimulators	inhibitors	stimulated	effect on GABA-evoked ionic currents [8]: inhibited; effect on 3T3-L1 cell growth and apoptosis ([6]; ref Hsu and Yen, 2006): inhibited

Continued, in another order:

pIC50 [2]	SMILES	effect on Cav1.2 channels [5]	effect on Gd3+-evoked Ca2+ entry (natural flavonoid screen) ([2]; 10 μM, 50 μM Gd3+)	effect on BKCa channels [7]	other results
6.35	O=c1c(O)c(-c2ccccc2)oc2cc(O)cc(O)c12 [Galangin]	inhibited	–	–	effect on Gd3+-evoked Ca2+ signal (natural product screen) ([2]; 10 μM, 30 min pre-incubation, 50 μM Gd3+, fluo-4): inhibitory; effect on Gd3+-evoked TRPC5-mediated whole-cell current ([1]; 10 μM compound, 30 μM Gd3+, Ca2+ or Ba2+ in bath): effective; time to effect on whole-cell current ([1]; 10 μM, 30 μM Gd3+): ≤ 2 min; effect on TRPC5 current stimulated by S1P ([1]; whole-cell, 10 μM compound, 5 μM S1P): effective; reversibility on washout ([1]; whole-cell, 10 μM, Gd3+-evoked current): not readily reversed on washout; effect on TRPC5-mediated current in excised outside-out patches [3]: inhibited; pIC50 ([4]; fluo-4, 20 μM La3+, read-out: IC50 for inhibition of La3+-evoked Ca2+ entry): 5.22; pIC50 ([4]; fluo-4, constitutive activity, read-out: IC50 for inhibition of basal Ca2+): 5.73; effect in 3T3-L1 cells / on adipocyte differentiation ([6]; ref Jung et al., 2012): anti‐adipogenic effects
5.41	O=c1c(O)c(-c2ccc(O)cc2)oc2cc(O)cc(O)c12 [Kaempferol]	stimulators	inhibitors	stimulated	–
